According to EP3623369A1, “NOVEL MORPHOLINYL AMINE COMPOUNDS FOR THE TREATMENT OF AUTOIMMUNE DISEASE” (F. Hoffmann-La Roche AG, priority 2018, dated 2020):
pIC50: −log10 of the molar value.

These compounds were tested against T1, hTLR9 (Homo sapiens, UniProt Q9NR96) (assay: HEK293-Blue-hTLR-9 cells assay (SEAP reporter, ODN2006 stimulation)). Settings: HEK293-Blue-hTLR9 cells, ODN2006, 20 hrs; 0.032 is the lowest tested concentration; read-out: HEK/hTLR9 IC50.
T1 sequence (Q9NR96 26-1032): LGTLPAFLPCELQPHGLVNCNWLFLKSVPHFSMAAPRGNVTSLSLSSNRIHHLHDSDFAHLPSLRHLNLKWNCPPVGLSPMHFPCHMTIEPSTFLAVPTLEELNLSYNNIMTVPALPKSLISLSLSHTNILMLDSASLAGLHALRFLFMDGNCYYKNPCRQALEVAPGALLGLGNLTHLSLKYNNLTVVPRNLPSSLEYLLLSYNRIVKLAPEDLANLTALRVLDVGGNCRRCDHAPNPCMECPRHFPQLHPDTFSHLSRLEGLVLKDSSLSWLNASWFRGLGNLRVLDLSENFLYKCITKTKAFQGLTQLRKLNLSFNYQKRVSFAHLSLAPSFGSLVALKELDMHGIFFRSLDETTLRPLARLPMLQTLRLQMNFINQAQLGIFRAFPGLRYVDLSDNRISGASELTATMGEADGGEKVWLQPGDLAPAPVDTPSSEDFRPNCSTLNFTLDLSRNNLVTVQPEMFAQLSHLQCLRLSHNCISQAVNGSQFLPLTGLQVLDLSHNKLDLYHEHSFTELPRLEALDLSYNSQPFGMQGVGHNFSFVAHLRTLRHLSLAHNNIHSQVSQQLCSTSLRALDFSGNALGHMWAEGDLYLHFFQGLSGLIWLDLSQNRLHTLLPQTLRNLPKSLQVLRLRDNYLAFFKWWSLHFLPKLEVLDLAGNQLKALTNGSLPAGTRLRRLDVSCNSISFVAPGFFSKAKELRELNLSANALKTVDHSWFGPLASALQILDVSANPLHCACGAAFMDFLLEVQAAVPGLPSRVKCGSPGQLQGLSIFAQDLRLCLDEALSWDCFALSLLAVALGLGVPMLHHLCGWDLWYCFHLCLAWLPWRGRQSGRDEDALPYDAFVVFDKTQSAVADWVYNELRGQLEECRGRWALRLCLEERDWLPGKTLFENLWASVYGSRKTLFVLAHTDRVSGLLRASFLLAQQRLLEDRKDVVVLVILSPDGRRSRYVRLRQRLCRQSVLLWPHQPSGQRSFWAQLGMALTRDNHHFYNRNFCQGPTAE
Assay type: cell-based
Method: The following tests were carried out in order to determine the activity of the compounds of formula (I) or (Ia) in HEK293-Blue-hTLR-7/8/9 cells assay.
HEK293-Blue-hTLR-9 cells assay:
A stable HEK293-Blue-hTLR-9 cell line was purchased from InvivoGen (Cat.#: hkb-htlr9, San Diego, California, USA). These cells were originally designed for studying the stimulation of human TLR9 by monitoring the activation of NF-κB. A SEAP (secreted embryonic alkaline phosphatase) reporter gene was placed under the control of the IFN-β minimal promoter fused to five NF-κB and AP-1-binding sites. The SEAP was induced by activating NF-κB and AP-1 via stimulating HEK-Blue hTLR9 cells with TLR9 ligands. Therefore the reporter expression was declined by TLR9 antagonist under the stimulation of a ligand, such as ODN2006 (Cat.#: tlrl-2006-1, Invivogen, San Diego, California, USA), for incubation of 20 hrs. The cell culture supernatant SEAP reporter activity was determined using QUANTI-Blue™ kit (Cat.#: rep-qb1, Invivogen, San Diego, California, USA) at a wavelength of 640 nm, a detection medium that turns purple or blue in the presence of alkaline phosphatase.
HEK293-Blue-hTLR9 cells were incubated at a density of 250,000∼450,000 cells/mL in a volume of 170 µL in a 96-well plate in Dulbecco's Modified Eagle's medium (DMEM) containing 4.5 g/L glucose, 50 U/mL penicillin, […], […], 2 mM L-glutamine, 10% (v/v) heat-inactivated fetal bovine serum with addition of 20 µL test compound in a serial dilution in the presence of final DMSO at 1% and 10 µL of 20uM ODN2006 in above DMEM, perform incubation under 37 °C in a CO2 incubator for 20 hrs. Then 20 µL of the supernatant from each well was incubated with 180 µL Quanti-blue substrate solution at 37 °C for 2 hrs and the absorbance was read at 620∼655 nm using a spectrophotometer. The signalling pathway that TLR9 activation leads to downstream NF-κB activation has been widely accepted, and therefore similar reporter assay was modified for evaluating TLR9 antagonist.

SMILES | pIC50
C[C@@H]1CN(c2ccc(Cl)c3ncccc23)C[C@H](CN2Cc3ccc(N4CCNCC4)cc3C2)O1 [Example 31, (2R,6S)-4-(8-chloro-5-quinolyl)-2-methyl-6-[(5-piperazin-1-ylisoindolin-2-yl)methyl]morpholine] | 6.77
C[C@@H]1CN(c2ccc(Cl)c3nccnc23)C[C@H](CN2Cc3ccc(N4CCNCC4)cc3C2)O1 [Example 33, (2R,6S)-4-(8-chloroquinoxalin-5-yl)-2-methyl-6-[(5-piperazin-1-ylisoindolin-2-yl)methyl]morpholine] | 6.76
C[C@@H]1CN(c2ccc(C#N)c3nccnc23)C[C@H](CN2Cc3ccc(N4CCN(C5CC5)CC4)cc3C2)O1 [Example 35, 8-[(2S,6R)-2-[[5-(4-cyclopropylpiperazin-1-yl)isoindolin-2-yl]methyl]-6-methyl-morpholin-4-yl]quinoxaline-5-carbonitrile] | 6.67
COCCN1CCN(c2ccc3c(c2)CN(C[C@H]2CN(c4ccc(C#N)c5nccnc45)C[C@@H](C)O2)C3)CC1 [Example 37, 8-[(2S,6R)-2-[[5-[4-(2-methoxyethyl)piperazin-1-yl]isoindolin-2-yl]methyl]-6-methyl-morpholin-4-yl]quinoxaline-5-carbonitrile] | 6.59
C[C@@H]1CN(c2ccc(C#N)c3nccnc23)C[C@H](CN2Cc3ccc(N4CCNC5(CC5)C4)cc3C2)O1 [Example 38, 8-[(2S,6R)-2-[[5-(4,7-diazaspiro[2.5]octan-7-yl)isoindolin-2-yl]methyl]-6-methyl-morpholin-4-yl]quinoxaline-5-carbonitrile] | 6.64
C[C@@H]1CN(c2ccc(C#N)c3nccnc23)C[C@H](CN2Cc3ccc(N4C5CCC4CNC5)cc3C2)O1 [Example 41, 8-[(2S,6R)-2-[[5-(3,8-diazabicyclo[3.2.1]octan-8-yl)isoindolin-2-yl]methyl]-6-methyl-morpholin-4-yl]quinoxaline-5-carbonitrile] | 6.64
C[C@@H]1CN(c2ccc(C#N)c3ncccc23)C[C@H](CN2Cc3ccc(N4CC5CCC(C4)N5)cc3C2)O1 [Example 42, 5-[(2S,6R)-2-[[5-(3,8-diazabicyclo[3.2.1]octan-3-yl)isoindolin-2-yl]methyl]-6-methyl-morpholin-4-yl]quinoline-8-carbonitrile] | 7.01
C[C@@H]1CN(c2ccc(C#N)c3ncccc23)C[C@H](CN2Cc3ccc(N4C5CCC4CNC5)cc3C2)O1 [Example 43, 5-[(2S,6R)-2-[[5-(3,8-diazabicyclo[3.2.1]octan-8-yl)isoindolin-2-yl]methyl]-6-methyl-morpholin-4-yl]quinoline-8-carbonitrile] | 7.06
C[C@@H]1CN(c2ccc(C#N)c3ncccc23)C[C@H](CN2Cc3ccc(N4C5CNCC4COC5)cc3C2)O1 [Example 46, 5-[(2R,6S)-2-methyl-6-[[5-(3-oxa-7,9-diazabicyclo[3.3.1]nonan-9-yl)isoindolin-2-yl]methyl]morpholin-4-yl]quinoline-8-carbonitrile] | 7.12
C[C@@H]1CN(c2ccc(C#N)c3nccnc23)C[C@H](CN2Cc3ccc(N4CC5COCC(C4)N5)cc3C2)O1 [Example 49, 8-[(2R,6S)-2-methyl-6-[[5-(3-oxa-7,9-diazabicyclo[3.3.1]nonan-7-yl)isoindolin-2-yl]methyl]morpholin-4-yl]quinoxaline-5-carbonitrile] | 6.79
CCOC(=O)C1CNCCN1c1ccc2c(c1)CN(C[C@H]1CN(c3ccc(C#N)c4ncccc34)C[C@@H](C)O1)C2 (stereo partly drawn) [Example 50, Ethyl 1-[2-[[(2S,6R)-4-(8-cyano-5-quinolyl)-6-methyl-morpholin-2-yl]methyl]isoindolin-5-yl] piperazine-2-carboxylate] | 6.59

Second part, the compound after the results:

pIC50 | SMILES
7.03 | C[C@@H]1CN(c2ccc(C#N)n3nccc23)C[C@H](CN2Cc3ccc(OCCN(C)C)cc3C2)O1 [Example 28, 4-[(2S,6R)-2-[[5-[2-(dimethylamino)ethoxy]isoindolin-2-yl]methyl]-6-methyl-morpholin-4-yl]pyrazolo[1,5-a]pyridine-7-carbonitrile]
6.87 | C[C@@H]1CN(c2ccc(C#N)n3ncc(F)c23)C[C@H](CN2Cc3cc(N4CCNCC4)cnc3C2)O1 [Example 29, 3-fluoro-4-[(2R,6S)-2-methyl-6-[(3-piperazin-1-yl-5,7-dihydropyrrolo[3,4-b]pyridin-6-yl)methyl]morpholin-4-yl]pyrazolo[1,5-a]pyridine-7-carbonitrile]
6.87 | C[C@@H]1CN(c2ccc(C#N)c3nccnc23)C[C@H](CN2Cc3cc(N4CCNCC4)cnc3C2)O1 [Example 30, 8-[(2R,6S)-2-methyl-6-[(3-piperazin-1-yl-5,7-dihydropyrrolo[3,4-b]pyridin-6-yl)methyl]morpholin-4-yl]quinoxaline-5-carbonitrile]
6.91 | C[C@@H]1CN(c2ccc(Cl)c3ncccc23)C[C@H](CN2CCc3cc(N4CCNCC4)ccc3C2)O1 [Example 32, (2R,6S)-4-(8-chloro-5-quinolyl)-2-methyl-6-[(6-piperazin-1-yl-3,4-dihydro-1H-isoquinolin-2-yl)methyl]morpholine]
6.90 | C[C@@H]1CN(c2ccc(Cl)c3nccnc23)C[C@H](CN2CCc3cc(N4CCNCC4)ccc3C2)O1 [Example 34, (2R,6S)-4-(8-chloroquinoxalin-5-yl)-2-methyl-6-[(6-piperazin-1-yl-3,4-dihydro-1H-isoquinolin-2-yl)methyl]morpholine]
7.24 | CC1CN(c2ccc3c(c2)CN(C[C@H]2CN(c4ccc(C#N)c5nccnc45)C[C@@H](C)O2)C3)CCN1 (stereo partly drawn) [Example 36, 8-[(2R,6S)-2-methyl-6-[[5-(3-methylpiperazin-1-yl)isoindolin-2-yl]methyl]morpholin-4-yl]quinoxaline-5-carbonitrile]
6.91 | C[C@@H]1CN(c2ccc(C#N)c3nccnc23)C[C@H](CN2Cc3ccc(N4CCN5CCCCC5C4)cc3C2)O1 (stereo partly drawn) [Example 40, 8-[(2S,6R)-2-[[5-(1,3,4,6,7,8,9,9a-octahydropyrido[1,2-a]pyrazin-2-yl)isoindolin-2-yl]methyl]-6-methyl-morpholin-4-yl]quinoxaline-5-carbonitrile]
7.08 | C[C@@H]1CN(c2ccc(C#N)c3ncccc23)C[C@H](CN2Cc3ccc(N4CC5(CNC5)C4)cc3C2)O1 [Example 47, 5-[(2S,6R)-2-[[5-(2,6-diazaspiro[3.3]heptan-2-yl)isoindolin-2-yl]methyl]-6-methyl-morpholin-4-yl]quinoline-8-carbonitrile]
6.98 | CC1c2ccc(N3CCNCC3)cc2CN1C[C@H]1CN(c2ccc(C#N)c3ncccc23)C[C@@H](C)O1 (stereo partly drawn) [Example 48, 5-[(2R,6S)-2-methyl-6-[(1-methyl-5-piperazin-1-yl-isoindolin-2-yl)methyl]morpholin-4-yl]quinoline-8-carbonitrile]
7.08 | C[C@@H]1CN(c2ccc(C#N)c3ncccc23)C[C@H](CN2Cc3ccc(N4CC5(CCN5)C4)cc3C2)O1 [Example 55, 5-[(2S,6R)-2-[[5-(1,6-diazaspiro[3.3]heptan-6-yl)isoindolin-2-yl]methyl]-6-methyl-morpholin-4-yl]quinoline-8-carbonitrile]
